According to patent US20240131007A1, “METHODS AND COMPOSITIONS FOR PICORNAVIRUS ANTI-VIRAL AGENTS” (University of Connecticut, priority 2022, published 2024):

Tested on: not listed separately
Assay: in vitro
Details: African green monkey
With O=C(Nc1ccc2[nH]c(-c3ccccc3)nc2c1)c1ccccc1 [Compound 53, N-(2-phenyl-1H-benzimidazol-5-yl)benzamide] the CC50 was 125 µM.

Same assay, conditions: African green monkey, CC50 (μM)
In the case of Cc1ccc2[nH]c(-c3cccc(NC(=O)c4ccc(Br)o4)c3)nc2c1 [Compound 64, 5-bromo-N-[3-(5-methyl-1H-benzimidazol-2-yl)phenyl]-2-furamide], the CC50 at 3 days is reported as 43.8 µM. Work on Cn1cccc1-c1nc2cc(NC(=O)c3ccccc3)ccc2[nH]1 [Compound 54, N-[2-(1-methyl-1H-pyrrol-2-yl)-1H-benzimidazol-5-yl]benzamide] yielded a CC50 at 3 days of 33.1 µM. Cc1ccc2[nH]c(-c3ccc(NC(=O)C(C)C)cc3)nc2c1 [Compound 33, 2-methyl-N-[4-(5-methyl-1H-benzimidazol-2-yl)phenyl]propanamide] gave a CC50 at 3 days of 468 µM. Compound O=C(Nc1ccc(-c2nc3ccccc3[nH]2)cc1)c1ccc(-c2cccc([N+](=O)[O-])c2)o1 [Compound 23, N-[4-(1H-benzimidazol-2-yl)phenyl]-5-(3-nitrophenyl)-2-furamide] has a CC50 at 3 days of 1.14 µM. CC(=O)Oc1ccc(C(=O)Nc2ccc(-c3nc4ccccc4[nH]3)cc2)cc1 [Compound 4, 4-({[4-(1H-benzimidazol-2-yl)phenyl]amino}carbonyl)phenyl acetate] gave a CC50 at 3 days of 119 µM. In the case of O=C(Nc1ccc2[nH]c(-c3ccc(Br)o3)nc2c1)c1ccccc1 [Compound T4, N-[2-(5-bromo-2-furyl)-1H-benzimidazol-5-yl]benzamide], the CC50 at 3 days is reported as > 200 µM. For Cc1ccc2[nH]c(-c3ccc(NC(=O)COc4ccccc4)cc3)nc2c1 [Compound 38, N-[4-(5-methyl-1H-benzimidazol-2-yl)phenyl]-2-phenoxyacetamide], the CC50 at 3 days was > 400 µM. O=C(Nc1ccc(-c2nc3ccccc3[nH]2)cc1)c1ccc(F)cc1 [Compound 14, N-[4-(1H-benzimidazol-2-yl)phenyl]-4-fluorobenzamide] showed a CC50 at 3 days of 133 µM. With O=C(Cc1cccc2ccccc12)Nc1ccc(-c2nc3ccccc3[nH]2)cc1 [Compound 24, N-[4-(1H-benzimidazol-2-yl)phenyl]-2-(1-naphthyl)acetamide] the CC50 at 3 days was 58.8 µM. In the case of O=C(Nc1ccc(-c2nc3ccccc3[nH]2)cc1)c1ccccc1 [Compound 6, N-[4-(1H-benzimidazol-2-yl)phenyl]benzamide], the CC50 at 3 days is reported as 13.7 µM. In the case of O=C(Nc1ccc(-c2nc3ccccc3[nH]2)cc1)c1ccc(-c2cccc(Cl)c2)o1 [Compound 27, N-[4-(1H-benzimidazol-2-yl)phenyl]-5-(3-chlorophenyl)-2-furamide], the CC50 at 3 days is reported as 67.6 µM. O=C(Nc1ccc(-c2nc3ccccc3[nH]2)cc1)c1ccccn1 [Compound 8, N-[4-(1H-benzimidazol-2-yl)phenyl]-2-pyridinecarboxamide] gave a CC50 at 3 days of 244 µM. Work on O=C(Nc1ccc(-c2nc3ccccc3[nH]2)cc1)c1ccc(Br)o1 [Compound 11, N-[4-(1H-benzimidazol-2-yl)phenyl]-5-bromo-2-furamide] yielded a CC50 at 3 days of 1650 µM. In the case of Cn1cccc1-c1nc2cc(NC(=O)c3cccs3)ccc2[nH]1 [Compound 58, N-[2-(1-methyl-1H-pyrrol-2-yl)-1H-benzimidazol-5-yl]-2-thiophenecarboxamide], the CC50 at 3 days is reported as 62.8 µM. For Cc1ccc(OCC(=O)Nc2ccc(-c3nc4cc(C)ccc4[nH]3)cc2)cc1 [Compound 41, N-[4-(5-methyl-1H-benzimidazol-2-yl)phenyl]-2-(4-methylphenoxy)acetamide], the CC50 at 3 days was > 400 µM. O=C(Nc1ccc(-c2nc3ccccc3[nH]2)cc1)c1cccc(F)c1 [Compound 15, N-[4-(1H-benzimidazol-2-yl)phenyl]-3-fluorobenzamide] showed a CC50 at 3 days of 29.2 µM. Work on O=C(Nc1ccc(-c2nc3ccccc3[nH]2)cc1)c1cc([N+](=O)[O-])ccc1N1CCOCC1 [Compound 19, N-[4-(1H-benzimidazol-2-yl)phenyl]-2-(4-morpholinyl)-5-nitrobenzamide] yielded a CC50 at 3 days of 2090 µM.

Tested on: EV-A71
Assay: CPE inhibition assay (Cell Titer Glo) against EV-A71 in Vero cells
Format: cell-based, Enterovirus A71
Details: not given
In the case of O=C(Nc1ccc2[nH]c(-c3ccccc3)nc2c1)c1ccccc1 [Compound 53, N-(2-phenyl-1H-benzimidazol-5-yl)benzamide], the “Selectivity Index” value is reported as 9.43.

Same assay, conditions: Enterovirus A, EVA71; Table 6; EV-A71, Vero cells; read-out: IC50
O=C(Nc1ccc2[nH]c(-c3ccc(Br)o3)nc2c1)c1ccccc1 [Compound T4, N-[2-(5-bromo-2-furyl)-1H-benzimidazol-5-yl]benzamide] showed an IC50 of 12.2 µM.

Same assay, conditions: Enterovirus A, EVA71; Table 8; virus-induced CPE, EV-A71, Vero cells; read-out: IC50
In the case of O=C(Nc1ccc(-c2nc3ccccc3[nH]2)cc1)c1ccccn1 [Compound 8, N-[4-(1H-benzimidazol-2-yl)phenyl]-2-pyridinecarboxamide], the IC50 is reported as 1.46 µM.

Same assay, conditions: Enterovirus A, EVA71; Table 10, Scaffold 1; EV-A71, Vero cells; read-out: IC50
Cc1ccc2[nH]c(-c3ccc(NC(=O)C(C)C)cc3)nc2c1 [Compound 33, 2-methyl-N-[4-(5-methyl-1H-benzimidazol-2-yl)phenyl]propanamide] gave an IC50 of 11.8 µM. With O=C(Nc1ccc(-c2nc3ccccc3[nH]2)cc1)c1ccc(-c2cccc([N+](=O)[O-])c2)o1 [Compound 23, N-[4-(1H-benzimidazol-2-yl)phenyl]-5-(3-nitrophenyl)-2-furamide] the IC50 was > 25 µM. In the case of CC(=O)Oc1ccc(C(=O)Nc2ccc(-c3nc4ccccc4[nH]3)cc2)cc1 [Compound 4, 4-({[4-(1H-benzimidazol-2-yl)phenyl]amino}carbonyl)phenyl acetate], the IC50 is reported as 34.2 µM. In the case of Cc1ccc2[nH]c(-c3ccc(NC(=O)COc4ccccc4)cc3)nc2c1 [Compound 38, N-[4-(5-methyl-1H-benzimidazol-2-yl)phenyl]-2-phenoxyacetamide], the IC50 is reported as > 25 µM. With O=C(Nc1ccc(-c2nc3ccccc3[nH]2)cc1)c1ccc(F)cc1 [Compound 14, N-[4-(1H-benzimidazol-2-yl)phenyl]-4-fluorobenzamide] the IC50 was > 25 µM. For O=C(Cc1cccc2ccccc12)Nc1ccc(-c2nc3ccccc3[nH]2)cc1 [Compound 24, N-[4-(1H-benzimidazol-2-yl)phenyl]-2-(1-naphthyl)acetamide], the IC50 was 8.34 µM. O=C(Nc1ccc(-c2nc3ccccc3[nH]2)cc1)c1ccccc1 [Compound 6, N-[4-(1H-benzimidazol-2-yl)phenyl]benzamide] showed an IC50 of 30.8 µM. O=C(Nc1ccc(-c2nc3ccccc3[nH]2)cc1)c1ccc(-c2cccc(Cl)c2)o1 [Compound 27, N-[4-(1H-benzimidazol-2-yl)phenyl]-5-(3-chlorophenyl)-2-furamide] showed an IC50 of 5.85 µM. In the case of O=C(Nc1ccc(-c2nc3ccccc3[nH]2)cc1)c1ccc(Br)o1 [Compound 11, N-[4-(1H-benzimidazol-2-yl)phenyl]-5-bromo-2-furamide], the IC50 is reported as 252 µM. In the case of Cc1ccc(OCC(=O)Nc2ccc(-c3nc4cc(C)ccc4[nH]3)cc2)cc1 [Compound 41, N-[4-(5-methyl-1H-benzimidazol-2-yl)phenyl]-2-(4-methylphenoxy)acetamide], the IC50 is reported as > 25 µM. With O=C(Nc1ccc(-c2nc3ccccc3[nH]2)cc1)c1cccc(F)c1 [Compound 15, N-[4-(1H-benzimidazol-2-yl)phenyl]-3-fluorobenzamide] the IC50 was > 25 µM. O=C(Nc1ccc(-c2nc3ccccc3[nH]2)cc1)c1cc([N+](=O)[O-])ccc1N1CCOCC1 [Compound 19, N-[4-(1H-benzimidazol-2-yl)phenyl]-2-(4-morpholinyl)-5-nitrobenzamide] gave an IC50 of 7.28 µM.

Same assay, conditions: Enterovirus A, EVA71; Table 12, Scaffold 3; EV-A71, Vero cells; read-out: IC50
With Cn1cccc1-c1nc2cc(NC(=O)c3ccccc3)ccc2[nH]1 [Compound 54, N-[2-(1-methyl-1H-pyrrol-2-yl)-1H-benzimidazol-5-yl]benzamide] the IC50 was 47.6 µM. In the case of Cn1cccc1-c1nc2cc(NC(=O)c3cccs3)ccc2[nH]1 [Compound 58, N-[2-(1-methyl-1H-pyrrol-2-yl)-1H-benzimidazol-5-yl]-2-thiophenecarboxamide], the IC50 is reported as 23.7 µM. With O=C(Nc1ccc2[nH]c(-c3ccccc3)nc2c1)c1ccccc1 [Compound 53, N-(2-phenyl-1H-benzimidazol-5-yl)benzamide] the IC50 was 13.2 µM.

Same assay, conditions: Enterovirus A, EVA71; Table 13, Scaffold 4; EV-A71, Vero cells; read-out: IC50
In the case of Cc1ccc2[nH]c(-c3cccc(NC(=O)c4ccc(Br)o4)c3)nc2c1 [Compound 64, 5-bromo-N-[3-(5-methyl-1H-benzimidazol-2-yl)phenyl]-2-furamide], the IC50 is reported as 71.4 µM.

Same assay, conditions: Table 6; CC50/IC50
With O=C(Nc1ccc2[nH]c(-c3ccc(Br)o3)nc2c1)c1ccccc1 [Compound T4, N-[2-(5-bromo-2-furyl)-1H-benzimidazol-5-yl]benzamide] the “Selectivity Index” value was >16.33.

Same assay, conditions: Table 8; CC50/IC50
With O=C(Nc1ccc(-c2nc3ccccc3[nH]2)cc1)c1ccccn1 [Compound 8, N-[4-(1H-benzimidazol-2-yl)phenyl]-2-pyridinecarboxamide] the “Selectivity Index” value was 167.19.

Same assay, conditions: Table 10, Scaffold 1; CC50/IC50
In the case of Cc1ccc2[nH]c(-c3ccc(NC(=O)C(C)C)cc3)nc2c1 [Compound 33, 2-methyl-N-[4-(5-methyl-1H-benzimidazol-2-yl)phenyl]propanamide], the “Selectivity Index” value is reported as 39.46. In the case of CC(=O)Oc1ccc(C(=O)Nc2ccc(-c3nc4ccccc4[nH]3)cc2)cc1 [Compound 4, 4-({[4-(1H-benzimidazol-2-yl)phenyl]amino}carbonyl)phenyl acetate], the “Selectivity Index” value is reported as 3.49. With O=C(Cc1cccc2ccccc12)Nc1ccc(-c2nc3ccccc3[nH]2)cc1 [Compound 24, N-[4-(1H-benzimidazol-2-yl)phenyl]-2-(1-naphthyl)acetamide] the “Selectivity Index” value was 7.05. In the case of O=C(Nc1ccc(-c2nc3ccccc3[nH]2)cc1)c1ccccc1 [Compound 6, N-[4-(1H-benzimidazol-2-yl)phenyl]benzamide], the “Selectivity Index” value is reported as 0.45. In the case of O=C(Nc1ccc(-c2nc3ccccc3[nH]2)cc1)c1ccc(-c2cccc(Cl)c2)o1 [Compound 27, N-[4-(1H-benzimidazol-2-yl)phenyl]-5-(3-chlorophenyl)-2-furamide], the “Selectivity Index” value is reported as 11.56. In the case of O=C(Nc1ccc(-c2nc3ccccc3[nH]2)cc1)c1ccccn1 [Compound 8, N-[4-(1H-benzimidazol-2-yl)phenyl]-2-pyridinecarboxamide], the “Selectivity Index” value is reported as 167.19. In the case of O=C(Nc1ccc(-c2nc3ccccc3[nH]2)cc1)c1ccc(Br)o1 [Compound 11, N-[4-(1H-benzimidazol-2-yl)phenyl]-5-bromo-2-furamide], the “Selectivity Index” value is reported as 6.54. In the case of O=C(Nc1ccc(-c2nc3ccccc3[nH]2)cc1)c1cc([N+](=O)[O-])ccc1N1CCOCC1 [Compound 19, N-[4-(1H-benzimidazol-2-yl)phenyl]-2-(4-morpholinyl)-5-nitrobenzamide], the “Selectivity Index” value is reported as 287.50.

Same assay, conditions: Table 12, Scaffold 3; CC50/IC50
For Cn1cccc1-c1nc2cc(NC(=O)c3ccccc3)ccc2[nH]1 [Compound 54, N-[2-(1-methyl-1H-pyrrol-2-yl)-1H-benzimidazol-5-yl]benzamide], the “Selectivity Index” value was 0.69. For Cn1cccc1-c1nc2cc(NC(=O)c3cccs3)ccc2[nH]1 [Compound 58, N-[2-(1-methyl-1H-pyrrol-2-yl)-1H-benzimidazol-5-yl]-2-thiophenecarboxamide], the “Selectivity Index” value was 2.66.

Same assay, conditions: Table 13, Scaffold 4; CC50/IC50
In the case of Cc1ccc2[nH]c(-c3cccc(NC(=O)c4ccc(Br)o4)c3)nc2c1 [Compound 64, 5-bromo-N-[3-(5-methyl-1H-benzimidazol-2-yl)phenyl]-2-furamide], the “Selectivity Index” value is reported as 0.61.
